Assay results as given in publication PMC4478171, “Synthesis, characterization, and preclinical validation of a PET radiopharmaceutical for interrogating Aβ (β-amyloid) plaques in Alzheimer’s disease” (EJNMMI Research, 2015).

Tests used:
[1] = molecular target: cortical Aβ plaques in AD frontal cortex sections (Homo sapiens, UniProt P05067); test: Autoradiography on AD frontal cortex sections with IHC correlation; type: binding; settings: 10 nM tracer, 60 min, 12 μm AD frontal cortex sections
Description: Frozen AD frontal cortex sections (12 μm) were obtained using a TBS Minotome PLUS Cryostat. The tissue sections were thaw-mounted onto Superfrost Plus (Fisherbrand 12-550-15 (Fisherbrand, Leicestershire, UK)) microscope slides, allowed to air dry for 10 to 15 min, and stored at −80°C. For autoradiography, brain sections were brought to room temperature for 5 min and then pre-incubated in assay buffer (30 mM Tris-HCl, pH 7.4 + 0.1% BSA) for 10 min at RT. Sections were incubated with ^18F-7B (300 μL/slide; 10 nM) in the assay buffer for 60 min at room temperature. For determining nonspecific binding, adjacent sections were incubated in the additional presence of 2.5 μM cold ligand 7A. Sections were then washed at RT for 1 min in 30 mM Tris-HCl pH 7.4, 2 min in 70% ethanol/30 mM Tris-HCl, 1 min in 30% ethanol/30 mM Tris-HCl, and 1 min in 30 mM Tris-HCl (washing protocol using literature precedents. Sections were then dried and exposed to phosphor-imaging screen (BAS-MS 2025) for 30 min. Autoradiography images were obtained on a Fuji Bio-Imaging System FLA-7000 (Tokyo, Japan) and analyzed using MultiGauge software (Fuji, Tokyo, Japan). Following exposure to a phosphor-imaging screen, the sections were then blocked for 60 min at room temperature with 3% milk-0.25% Tween 20-PBS buffer. […]

[2] = molecular target: T1, Aβ1-42 fibrils (Homo sapiens, UniProt P05067); test: Saturation radioligand binding to preformed Aβ1-42 fibrils
T1 construct: synthetic Aβ1-42 peptide (1 mg) (Bachem, Torrance, CA); purchased Bachem, Torrance, CA; host or cells: chemical synthesis
T1 sequence (P05067 672-713 limits assumed): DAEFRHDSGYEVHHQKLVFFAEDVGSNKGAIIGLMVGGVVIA
Description: Aβ1-42 fibrils were obtained using literature procedures described earlier. Briefly, synthetic Aβ1-42 peptide (1 mg) (Bachem, Torrance, CA) was initially dissolved in DMSO (50 μL) and diluted with the addition of mQ-H2O (925 μL). Finally, 1 M Tris-HCl (25 μL; pH 7.6) was added to the peptide solution to obtain a final peptide concentration (222 μM; 1 mg/mL). Thereafter, the peptide solution was incubated for 30 h at 37°C with shaking at 1,000 rpm in an Eppendorf Thermomixer. The fibril formation was confirmed by ThioT fluorescence. For determining the concentration of fibrils, the fibril reaction mix was centrifuged at 15,000×g for 15 min to separate the fibrils from the monomer. The concentration of Aβ monomer in the supernatant was determined in a BCA protein assay. […] The exact hot:cold (^18F-7B:7A) ratio was measured in each experiment by counting an aliquot of a sample (2 μL) of the radioligand preparation in a scintillation counter. Binding of ^18F-7B to human brain homogenates was assessed by incubating samples of insoluble fraction (5-μg insoluble protein/well) from AD subjects, with increasing concentrations of ^18F-7B (1.5 to 100 nM). Nonspecific binding was determined in parallel experiments utilizing 7A (2.5 μM) for Aβ1-42 fibrils and 7A (5 μM) for AD tissue as a competitor. […] Bmax values were calculated in pmol/gram wet weight of brain tissue.

[3] = molecular target: Aβ plaques (Homo sapiens, UniProt P05067); test: MicroPET/CT imaging in APP/PS1 versus WT mice; type: in vivo
Aβ plaques, sequence (P05067 672-711 limits assumed): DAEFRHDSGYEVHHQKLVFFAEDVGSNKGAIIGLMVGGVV
Description: Following anesthesia, the mice were secured with their heads in the center of the field of view, fixed in the scanner in a prone head-first position (HFP), and placed in an acrylic-imaging tray. MicroPET imaging was performed using Inveon PET/CT scanner (Siemens Medical Solutions, Malvern, PA, USA) following intravenous tail-vein injection of HPLC-purified [^18F]7B (12.95 MBq; 28 μL; 35% ethanol in saline) employing the catheter system in a slow bolus, followed by flushing with isotonic saline solution. PET dynamic data acquisition was performed over 75 min starting immediately following injection of the tracer. The emission data were normalized and corrected for attenuation, scatter, and decay. Attenuation correction was obtained using the co-registered CT data. The image volume consisted of 256 × 256 × 159 voxels, with a size of 0.39 × 0.39 × 0.8 mm^3 per voxel for the Inveon scanner. For anatomical visualization, PET images were co-registered with CT images from an Inveon PET/CT scanner. For analysis, brain uptake (Bq/L) was normalized to injected dose and weight of animals. […] Additionally, SUV values in time-activity curves were normalized to the average activity measured in those regions between 1 to 2 min post-injection. All image data were processed and analyzed using Inveon Research Workspace 4.1 software (Siemens, Malvern, PA, USA). […]

cortical Aβ plaques in AD frontal cortex sections, sequence (P05067 672-711 limits assumed): as above

## CN(C)c1ccc(/C=C/c2nc3ccc(OCC[18F])cc3s2)cn1 [^18F-7B, (E)-5-(2-(6-(2-[^18F]-fluoroethoxy)-benzo[d]thiazol-2-yl)vinyl)-N,N-dimethylpyridin-2-amine]
[1]
  labeling of Aβ plaques in autoradiography: showed labeling of cortical Aβ plaques
[2]
  Bmax: 6 pmol/nmol Aβ
[2]; one-site model
  Kd: 61 nM
[3]; APP/PS1 vs age-matched WT mice, 22.6 months, dynamic PET 1 to 75 min, i.v.
  retention in brain/frontal cortex of transgenic mice compared with WT: significantly higher retention
[3]; nasal and eye cavities, microPET/CT
  retention in extracerebral regions: considerable retention in extracerebral regions
